Assay: Pharmacokinetics of dexlansoprazole injection after single intravenous infusion in healthy Chinese subjects
Format: in vivo, human
Details: for Vd / clearance / half-life: iv
Method: Dexlansoprazole injection (30 mg per vial) used in the PK and PD study was manufactured by Nanjing Yoko Pharma Co., Ltd. (Nanjing, China). Subjects received an intravenous infusion of 20 or 30 mg dexlansoprazole injection in sterile saline solution (100 mL/h, 60 min). The study drug was administrated with an infusing pump (SA213, Lifepum, Beijing, China) and given through an intravenous catheter in the antecubital vein opposite to the one from which blood samples were taken.
To determine the pharmacokinetic properties of dexlansoprazole injection in human, a series of venous blood samples (5 mL) were collected in heparinized tubes at 0 (pre-dose), 10, 20, 40, 60, and 75 min, 1.5, 2, 2.5, 3, 4, 6, 9, 12, 16, 24, and 36 h post-dose. Samples were centrifuged immediately at 4°C for 10 min at 3,500 revolutions per minute, then separated and stored at −80°C for PK analysis.
A chiral liquid chromatography-mass spectrometry method was developed and validated for the simultaneous determination of (R)- and (S)-lansoprazole in human plasma, with the calibration curve of 500–3,000 ng/mL for both (R)- and (S)-lansoprazole (Sun et al., [2015]). […] The mass spectrometric analysis was performed using a QTrap 5500 mass spectrometer (AB Sciex, Concord, Ontario, Canada).
The PK parameter of Cmax (maximum concentration) and Tmax (the time to Cmax) were obtained directly from the observed data. Other PK parameters including t1/2 (elimination half-life), AUC^PK (area under the plasma concentration-time curve), Vd (volume of distribution), and CL (clearance) were calculated using non-compartmental methods with Phoenix WinNonlin version 6.4 (Pharsight Inc., CA, USA).

[1] = human, plasma, 20 mg, 20 mg iv, CYP2C19 PM (n = 6)
[2] = human, plasma, 20 mg, 20 mg iv, CYP2C19 hetEM (n = 9)
[3] = human, plasma, 20 mg, 20 mg iv, CYP2C19 homEM (n = 8)
[4] = human, plasma, 20 mg, 20 mg iv, Total (n = 23)
[5] = human, plasma, 30 mg, 30 mg iv, CYP2C19 PM (n = 7)
[6] = human, plasma, 30 mg, 30 mg iv, CYP2C19 hetEM (n = 10)
[7] = human, plasma, 30 mg, 30 mg iv, CYP2C19 homEM (n = 11)
[8] = human, plasma, 30 mg, 30 mg iv, Total (n = 28)
[9] = human, plasma, 20 mg iv, CYP2C19 PM (n = 6)

In the case of `Cc1c(OCC(F)(F)F)ccnc1C[S@@+]([O-])c1nc2ccccc2[nH]1` [dexlansoprazole], the “dose proportionality of Cmax and AUC^PK” value (20 vs 30 mg iv) is reported as “exhibit dose proportionality”, the “differences in PK parameters among ABCB1 genotypes” value (ABCB1 C3435T CC, CT, TT) is reported as “no statistical significant differences” and the Vd [1] is reported as 11 L. It also gave a clearance [1] of 34.7 mL/min, a half-life [1] of 3.65 h and a Vd [2] of 8.78 ± 1.35 L. It also gave a clearance [2] of 76.7 mL/min, a half-life [2] of 1.37 ± 0.24 h and a Vd [3] of 10.4 ± 1.07 L. It also gave a clearance [3] of 113 mL/min, a half-life [3] of 1.18 ± 0.4 h and a Vd [4] of 9.62 ± 1.45 L. For the same compound, the clearance [4] was 90.2 mL/min, the half-life [4] was 1.41 ± 0.64 h and the Vd [5] was 9.58 ± 1.56 L. It also gave a clearance [5] of 40.2 mL/min, a half-life [5] of 3.96 ± 1.54 h and a Vd [6] of 8.2 ± 1.73 L. It also gave a clearance [6] of 61.5 mL/min, a half-life [6] of 1.56 ± 0.15 h and a Vd [7] of 10.7 ± 1.23 L. It also gave a clearance [7] of 115 mL/min, a half-life [7] of 1.14 ± 0.28 h and a Vd [8] of 9.78 ± 1.69 L. For the same compound, the clearance [8] was 78.2 mL/min, the half-life [8] was 2.17 ± 1.57 h and the AUC(0-inf) [9] was 9600 ng·h/mL. For the same compound, the Cmax [9] was 1670 ng/mL, the AUC (human, plasma, 20 mg iv, CYP2C19 PM (n = 6), read-out: AUC0-tCon-t) was 9490 ng·h/mL and the Tmax (human, plasma, 20 mg iv, CYP2C19 homEM (n = 8)) was 1 h. The Tmax (human, plasma, 30 mg iv, Total (n = 28)) was 1 h, the “AUC^PK for CYP2C19 PMs relative to CYP2C19 homEMs” value (same dose group) was 3- to 4 fold and the “t1/2 for CYP2C19 PMs relative to CYP2C19 homEMs” value (same dose group) was 3- to 4 fold.

Source: PMC5614982, “Impact of Gastric H^+/K^+-ATPase rs2733743 on the Intragastric pH-Values of Dexlansoprazole Injection in Chinese Subjects” (Frontiers in Pharmacology, 2017)
